The values that follow are results of earlier work, collected in patent publication US20260015580A1, “Methods of Producing and Using Avian Embryonic Stem Cells and Avian Telencephalic Organoids” (The Regents of the University of California, priority 2022, published 2026).

This series deals with phosphorylation of ERK in C26 cells. The following applies: read-out: IC50, suppressing the phosphorylation of ERK.

A word on the IC50: it is the concentration needed to halve the response being measured. Take `O=C(NOC[C@H](O)CO)c1ccc(F)c(F)c1Nc1ccc(I)cc1F` [PD0325901]: the IC50 is 0.33 nM.
